Twelve molecules from PubChem BioAssay AID212 (DTP/NCI, 2004) can be followed below.

Several values for one entry are separate records, joined by “and”; a condition that tells them apart may be missing. Identical values can stand only once. Inconclusive results are not listed. Where a SMILES comes first, the peptide text is derived from it. Bridges are numbered along the chain shown (N, C = ends). Roman numbers before positions name the chains, in order. [ ]: non-standard residue; d: D form. The star is where a group is joined. Quinoxaline2carbonyl = O=C(c1cnc2ccccc2n1)*; NMeV = CN[CH](C(=O)O)C(C)C; NMeC = CN[CH](CS)C(=O)O

This assay relates to BDF1 mice, colon carcinoma 38 sc, T/C %. Put plainly: NCI In Vivo Anticancer Drug Screen. Data for tumor model Colon Carcinoma 38 (subcutaneous) in B6D2F1 (BDF1) mice. The conditions noted are these: endpoint: median tumor weight (est.), higher = larger tumour. The gist of the method: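 T/C readout: treated group (T) measurement over vehicle control group (C) measurement. Endpoint is survival or tumor size in mice bearing a transplanted tumor.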

[1] abbreviates: dose: 25.0 mg/kg/injection, schedule: Q07DX002 (ip), vehicle: saline.
Where [2] appears, read: dose: 50.0 mg/kg/injection, schedule: Q07DX002 (ip), vehicle: saline.
Setting [3] is: dose: 100.0 mg/kg/injection, schedule: Q07DX002 (ip), vehicle: saline.
[4] abbreviates: dose: 200.0 mg/kg/injection, schedule: Q07DX002 (ip), vehicle: saline.
Where [5] appears, read: dose: 12.5 mg/kg/injection, schedule: Q07DX002 (ip), vehicle: saline with Tween-80.
Setting [6] is: dose: 50.0 mg/kg/injection, schedule: Q07DX002 (ip), vehicle: saline with Tween-80.
Setting [7] is: dose: 200.0 mg/kg/injection, schedule: Q07DX002 (ip), vehicle: saline with Tween-80.
[8] abbreviates: dose: 100.0 mg/kg/injection, schedule: Q07DX002 (ip), vehicle: saline with Tween-80.
Setting [9] is: dose: 400.0 mg/kg/injection, schedule: Q07DX002 (ip), vehicle: saline with Tween-80.
The mark [10] stands for this setting: dose: 800.0 mg/kg/injection, schedule: Q07DX002 (ip), vehicle: saline with Tween-80.
[11] abbreviates: dose: 1600.0 mg/kg/injection, schedule: Q07DX002 (ip), vehicle: saline with Tween-80.

As for `C/C=C(\C)c1cc(=O)c2c(C)cc3c(c2o1)C(=O)c1c(O)c(C2CC(C)(N(C)C)C(OC(C)=O)C(C)O2)cc(C2CC(N(C)C)C(O)C(C)O2)c1C3=O` (stereo not drawn), the T/C (dose: 0.31 mg/kg/injection, schedule: Q07DX002 (ip), vehicle: saline) was 78 % of control; the T/C (dose: 0.31 mg/kg/injection, schedule: Q07DX002 (ip), vehicle: suspension in saline) is 84 % of control; the T/C (dose: 0.62 mg/kg/injection, schedule: Q07DX002 (ip), vehicle: saline) was 75 % of control and 92 % of control; the T/C (dose: 0.62 mg/kg/injection, schedule: Q07DX002 (ip), vehicle: suspension in saline) was 97 % of control; the T/C (dose: 1.25 mg/kg/injection, schedule: Q07DX002 (ip), vehicle: saline) is 97 % of control; the T/C (dose: 1.25 mg/kg/injection, schedule: Q07DX002 (ip), vehicle: suspension in saline) is 81 % of control. Besides, the T/C runs as follows: (dose: 2.5 mg/kg/injection, schedule: Q07DX002 (ip), vehicle: saline) 116 % of control and 105 % of control; (dose: 2.5 mg/kg/injection, schedule: Q07DX002 (ip), vehicle: suspension in saline) 90 % of control; (dose: 5.0 mg/kg/injection, schedule: Q07DX002 (ip), vehicle: saline) 86 % of control; (dose: 5.0 mg/kg/injection, schedule: Q07DX002 (ip), vehicle: suspension in saline) 97 % of control; (dose: 10.0 mg/kg/injection, schedule: Q07DX002 (ip), vehicle: saline) 97 % of control; (dose: 10.0 mg/kg/injection, schedule: Q07DX002 (ip), vehicle: suspension in saline) 120 % of control.

For `CN1CCN(c2ccc3nc(-c4ccc5nc(-c6ccc(O)cc6)[nH]c5c4)[nH]c3c2)CC1`, the T/C under setting [1] is 119 % of control, the T/C under setting [2] was 116 % of control, the T/C under setting [3] is 70 % of control and the T/C under setting [4] was 97 % of control.

As to `Nc1c(C(=O)O)[nH]c(=O)[nH]c1=O`, the T/C under setting [5] is 104 % of control; the T/C (dose: 25.0 mg/kg/injection, schedule: Q07DX002 (ip), vehicle: saline with Tween-80) is 100 % of control; the T/C under setting [6] is 80 % of control; the T/C under setting [7] was 123 % of control.

In the case of `O=c1[nH]c(=O)n(C2CC(O)C(CO)O2)cc1I` (stereo not drawn), the T/C under setting [6] is 79 % of control; the T/C under setting [2] was 44 % of control; the T/C under setting [8] is 69 % of control; the T/C under setting [3] was 50 % of control; the T/C under setting [7] is 102 % of control; the T/C under setting [4] was 44 % of control. Further, the T/C is, setting by setting: (dose: 200.0 mg/kg/injection, schedule: Q07DX002 (ip), vehicle: suspension in saline) 57 % of control; under setting [9], 105 % of control; (dose: 400.0 mg/kg/injection, schedule: Q07DX002 (ip), vehicle: saline) 44 % of control; (dose: 400.0 mg/kg/injection, schedule: Q07DX002 (ip), vehicle: suspension in saline) 102 % of control; under setting [10], 75 % of control; (dose: 800.0 mg/kg/injection, schedule: Q07DX002 (ip), vehicle: saline) 18 % of control. For the same molecule, the T/C is 59 % of control (dose: 800.0 mg/kg/injection, schedule: Q07DX002 (ip), vehicle: suspension in saline); 48 % of control under setting [11]; 1 % of control (dose: 1600.0 mg/kg/injection, schedule: Q07DX002 (ip), vehicle: saline).

Turning to `CC1NC(=O)C(NC(=O)c2cnc3ccccc3n2)COC(=O)C(C(C)C)N(C)C(=O)C2CSSCC(C(=O)N(C)C(C(C)C)C(=O)OCC(NC(=O)c3cnc4ccccc4n3)C(=O)NC(C)C(=O)N2C)N(C)C1=O` (stereo not drawn) (I: Quinoxaline2carbonyl-SA[NMeC][NMeV] / II: Quinoxaline2carbonyl-SA[NMeC][NMeV]; ester I:1-II:C, I:C-II:1; disulfide I:3-II:3; configuration not given here), the T/C by setting is: (dose: 25.0 micrograms/kg/injection, schedule: Q07DX002 (ip), vehicle: Klucel (hydroxypropylcellulose) (HPC)) 102 % of control; (dose: 50.0 micrograms/kg/injection, schedule: Q07DX002 (ip), vehicle: Klucel (hydroxypropylcellulose) (HPC)) 74 % of control; (dose: 100.0 micrograms/kg/injection, schedule: Q07DX002 (ip), vehicle: Klucel (hydroxypropylcellulose) (HPC)) 84 % of control; (dose: 200.0 micrograms/kg/injection, schedule: Q07DX002 (ip), vehicle: Klucel (hydroxypropylcellulose) (HPC)) 95 % of control.

On to `CCOC(=O)C(C)(C)Oc1ccc(Cl)cc1`, for which the T/C reads like this: under setting [5], 60 % of control; under setting [6], 94 % of control and 100 % of control; under setting [7], 110 % of control; under setting [9], 86 % of control.

In the case of `CCCCNc1ccc2nnc(C)n2n1`, the T/C is 102 % of control (dose: 25.0 mg/kg/injection, schedule: Q07DX002 (ip), vehicle: other); 98 % of control and 108 % of control (dose: 200.0 mg/kg/injection, schedule: Q07DX002 (ip), vehicle: other).

Consider `C1CC[N-]CC1.C1CC[N-]CC1.C1CC[N-]CC1.[Cl][Rh]([Cl])[Cl]`, for which the T/C was 105 % of control under setting [1]; 120 % of control and 124 % of control under setting [3]; 92 % of control under setting [4].

Regarding `Nc1ccc(S(N)(=O)=O)cc1`, the T/C under setting [8] was 103 % of control; the T/C (dose: 112.0 mg/kg/injection, schedule: Q07DX002 (ip), vehicle: saline with Tween-80) is 82 % of control and 100 % of control; the T/C under setting [9] was 122 % of control; the T/C under setting [10] was 76 % of control; the T/C under setting [11] is 101 % of control; the T/C (dose: 1800.0 mg/kg/injection, schedule: Q07DX002 (ip), vehicle: saline with Tween-80) was 80 % of control and 84 % of control.

For `Cc1c(CNc2ccc(C(=O)NC(CC(=O)O)C(=O)O)cc2)ccc2nc(N)nc(N)c12` (stereo not drawn), the T/C was 86 % of control (dose: 1.56 mg/kg/injection, schedule: Q07DX002 (ip), vehicle: saline with Tween-80); 122 % of control (dose: 1.56 mg/kg/injection, schedule: Q07DX002 (ip), vehicle: saline); 87 % of control (dose: 3.12 mg/kg/injection, schedule: Q07DX002 (ip), vehicle: saline with Tween-80); 96 % of control (dose: 3.12 mg/kg/injection, schedule: Q07DX002 (ip), vehicle: saline); 35 % of control (dose: 6.25 mg/kg/injection, schedule: Q07DX002 (ip), vehicle: saline with Tween-80); 48 % of control (dose: 6.25 mg/kg/injection, schedule: Q07DX002 (ip), vehicle: saline). For the same molecule, where the note is “dose: 12.5 mg/kg/injection, schedule: Q07DX002 (ip), vehicle: saline”, the T/C was 32 % of control.

For the molecule `CCC(=O)Sc1ccccc1C(=O)Nc1ccc(Cl)cc1`, the T/C under setting [6] was 120 % of control, the T/C under setting [8] was 104 % of control, the T/C under setting [7] was 114 % of control and the T/C under setting [9] was 59 % of control.

On to `N=C(N)Sc1ccccn1`, for which the T/C was 94 % of control (dose: 100.0 mg/kg/injection, schedule: Q07DX003 (ip), vehicle: saline); 81 % of control (dose: 200.0 mg/kg/injection, schedule: Q07DX003 (ip), vehicle: saline); 88 % of control and 108 % of control (dose: 400.0 mg/kg/injection, schedule: Q07DX003 (ip), vehicle: saline).
